# Where no end group is shown, it is not given here. Side-chain parts run from the residue outwards. The star is where a group is joined. DSPE = CCCCCCCCCCCCCCCCCC(=O)OC[C@H](COP(=O)(O)OCCN*)OC(=O)CCCCCCCCCCCCCCCCC; MAL = maleimide
# B1: ligand-coated Rnano (L-Rnano): resveratrol-loaded lipid nanoparticle carrying DSPE-PEG5000-peptide, the linear ASC-targeting peptide … (SEQ ID NO: 2), on its … (peptide)
# peptide: GSWKYWFGEGGC([MAL-PEG5000-DSPE])
# modifications: also: displayed in many copies on lipid nanoparticle, copy number not given here
# Columns and labels:
# [1] = Aqueous solubility, 1 mg R in 1 mL 1×PBS; type: physicochemical; conditions: visual observation
# [2] = Chemical stability of R by HPLC under light or dark; type: physicochemical
# [3] = In vitro release, dialysis method (Example 1); type: physicochemical; conditions: for R released from dialysis bag: bag containing 0.5 mg R
# Experimental: The dissolution medium was composed of 1×PBS and methanol (80:20, v/v). […] See Sun et al., Colloids Surf B Biointerfaces, 113 (2014) 15-24.
# The release study was conducted in the dark to prevent light-induced R degradation. To minimize the effect of R stability, the dissolution medium was changed completely each hour for the first 2 hr, and every 2 hr for the rest 8 hr.
# 3T3-L1 white adipocytes = test: Browning: marker mRNA by Real Time-PCR in differentiating adipocytes, basal or ISO-stimulated; type: cell-based, Murine
# Experimental: The cells were then stimulated with isoproterenol (ISO) for 6 hr. Relative mRNA expression of Uncoupling protein 1 (UCP-1), PPARγ, PPARγ co-activator 1α (PGC-1α), and PR-domain-containing 16 (PRDM16) were analyzed by semi-quantitative Real Time-PCR. Data=mean±SEM (n=3). E, Ethanol containing vehicle control for native R. R, rosiglitazone, a positive control. Letters of a-c or a′-c′ on top of the bars define differences among various forms of R under either basal or ISO-stimulated conditions, respectively. Different letters indicate significant differences among various R. *, p<0.05; **, p<0.01; ***, p<0.001 compared to their controls.
# The cells were then stimulated with ISO for 6 hr. Relative mRNA expression of white marker insulin-like growth factor-binding protein 3 (IGFBP3) (FIG. 9A) and beige marker CD137 and transmembrane protein 26 (Tmem26) (FIG. 9B) were analyzed by semi-quantitative reverse transcription polymerase chain reaction (RT-PCR). Data=mean±SEM (n=3). E, Ethanol containing vehicle control for native R. R, rosiglitazone, a positive control. Letters of a-c or a′-c′ on top of the bars define differences among various forms of R under both basal and ISO-stimulated conditions, respectively. Different letters indicate significant differences among various R. *, p<0.05; **, p<0.01 compared to the controls.
# Total RNA was extracted, cDNA was synthesized, and real-time PCR was performed using an ABI 7300HT instrument.
# The hallmark of beige adipocytes is induced thermogenesis in response to stimuli, such as […] agonist ISO.
# [4] = In vitro release, dialysis method (Example 2); type: physicochemical
# Experimental: The mean particle size, PI and zeta potential were measured every day. The in vitro release behavior was measured in the dissolution medium, which was composed of 1× phosphate buffer saline (1×PBS, pH 7.4) and methanol (80:20, v/v), using a dialysis method. […] R released into the medium at each time point was determined using the Shimadzu high-performance liquid chromatography (HPLC) system (Shimadzu Corporation, Kyoto, Japan).
# obese C57BL/6J mice [5] = test: Anti-obesity study: body weight, composition, food intake, fat pads, adipocyte size; type: in vivo
# Experimental: (§1) Sixty male 6-week old C57BL/6J mice from Jackson's lab were fed with a high-fat diet (HFD) (45% energy from fat, Research Diets, Inc, D12451) for 9 weeks starting from week 1 (age 7 weeks old) to week 9 (age 15 weeks old). The mice were allowed to drink and eat the HFD ad libitum and maintained at 22-24° C., 45% relative humidity and a daily 12/12 hour light/dark cycle. […] Treatments were intravenously injected into mice via tail veins twice a week. Food intake and body weight were recorded weekly. Glucose tolerance test (GTT) was conducted at week 8 and the insulin tolerance test (ITT) and cold tolerance test were conducted at week 9.
# After 9 weeks, mice were fasted overnight and humanely sacrificed. Blood was collected from the abdominal vein and brain, liver, lung, spleen, kidneys, skeletal muscle, gonadal white adipose tissue (G-WAT), inguinal WAT (I-WAT), retroperitoneal WAT (RP-WAT), and BAT of each mouse. Each tissue was cut into 3 pieces to be immediately frozen in liquid nitrogen followed by storage at −80° C. and fixed in 4% paraformaldehyde (for histology).
# Body composition of mice was performed at week 0, 2, 4 and 5 of treatments using an EchoMRI™ Whole Body Composition Analyzer (MRI system) (EchoMRI LLC, Houston, Tex., USA).
# H&E staining of I-WAT was conducted by the Department of Pathology of Texas Tech University Health Sciences Center. Briefly, the paraffin-embedded I-WAT sections (5 μm) were deparaffinized and rehydrated with xylene and ethanol. Sections were cleaned with water to skim reagent residue. Excess water was then blotted, the sections were incubated with Hematoxylin for 4 minutes, and washed several times using water. The sections were stained with Eosin and dehydrated. Finally, the sections were cleaned and covered with xylene-based mounting medium.
# obese C57BL/6J mice [6] = test: Fasting insulin, glucose, HOMA-IR, leptin, GTT and ITT; conditions: mouse, in vivo
# Experimental: as §1
# GTT and ITT were performed at end of treatments to assess whole-body glucose and insulin tolerance. […] Blood was collected and blood glucose concentrations were measured with a One Touch® glucometer from tail vein blood at 0, 15, 30, 60, 90, and 120 minutes post-injection. […] Blood glucose concentrations were measured as above at 0, 15, 30, 45, and 60 minutes post-injection. The area under the curve (AUC) was calculated. Blood glucose concentrations were plotted against time and the area under curve was calculated by following formula: […]
# Fasting plasma glucose concentrations were measured by One Touch® glucometer. Fasting insulin concentrations were determined by an insulin Millipore® ELISA commercial kit (Millipore, Billerica, Mass., USA). […]
# [7] = cited from earlier work
# [8] = tested on: primary stromal stem/progenitor cells derived from inguinal WAT (iWAT); conditions: 10 μM, brown-like differentiation; cited from earlier work
# [9] = molecular target: decorin lacking the glycanation site (ΔDCN), on ΔDCN-transduced 3T3-L1 cells (ΔDCN cells); test: cell-based or functional assay
# [10] = molecular target: endogenous surface ΔDCN receptor of mouse adipose stromal cells (ASC) in C57BL/6J white adipose tissue stromal vascular cells (mouse); test: cell-based or functional assay
# [11] = molecular target: decorin lacking the glycanation site (ΔDCN), on ΔDCN-transduced 3T3-L1 cells (ΔDCN cells); test: flow cytometry of ΔDCN cells incubated 2 h at 37° C. with DiD-labelled nanoparticles
molecule,measurement,setting,value
"Oc1ccc(/C=C/c2cc(O)cc(O)c2)cc1 [native R, 3,5,4′-trihydroxy-trans-stilbene]",dissolution of 1 mg in 1 mL of 1×PBS,[1],hardly dissolved
same,R degradation rate,"[2]; 4° C., dark, 7 days",17%
same,R degradation rate,"[2]; 22° C., dark, 7 days",48%
same,R degradation rate,"[2]; 37° C., dark, 7 days",52%
same,R degradation rate,"[2]; 37° C., under the light, 6 days",90%
same,R degraded,"[2]; pH 7.4, 4° C., under the light, 7 days",40%
same,R degraded,"[2]; pH 7.4, 22° C., under the light, 7 days",60%
same,R degraded,"[2]; pH 7.4, 37° C., under the light, 7 days",96%
same,release behavior,"[3]; 1×PBS:methanol 80:20, dark",burst release
same,R released from dialysis bag,[3]; 2-4 hr period,about 0.02 mg
same,accumulative released R mass,[3]; 10 hr period,reached a plateau
same,R released from dialysis bag,[3]; after 1 hr,about 0.17 mg
same,Cox4a mRNA,"3T3-L1 white adipocytes; 20 μM, ISO stimulated",increased
same,CD137 mRNA expression,3T3-L1 white adipocytes; ISO stimulated conditions,dose-dependently increased
same,Tmem26 expression,3T3-L1 white adipocytes; ISO stimulation,increased
same,PRDM16 mRNA expression,3T3-L1 white adipocytes; basal conditions,did not change
same,Tmem26 mRNA expression,3T3-L1 white adipocytes; basal conditions,decreased
same,IGFBP3 mRNA expression compared to controls,3T3-L1 white adipocytes; both basal and ISO stimulated conditions,dose-dependently decreased
same,R release,[4]; after eight hours,undetected
same,R released from dialysis bag,[4]; first two hours,more than 0.13 mg
same,released R as share of total R,[4]; first two hours,around 35%
same,mass of R released at every time point,[4]; following six hours,lower than 0.02 mg
same,diameter of adipocytes in I-WAT,"obese C57BL/6J mice [5]; H&E sections, after 5 weeks",around 100 μm
same,body weight,"obese C57BL/6J mice [5]; HFD mice, 15 mg/kg, IV twice a week, 5 weeks, vs saline",no significant reduction
same,percentage of body fat (% body fat),"obese C57BL/6J mice [5]; HFD mice, 15 mg/kg, IV twice a week, 5 weeks, vs saline, listed as Free R, 15 mg/kg",slightly lower
same,percentage of body fat (% body fat),"obese C57BL/6J mice [5]; HFD mice, 15 mg/kg, IV twice a week, 5 weeks, vs saline, listed as free R, 15 mg/kg",no significant reduction
same,body weight gain,obese C57BL/6J mice [5]; compared with saline group,decrease
same,adipocyte size / area of cells in I-WAT,obese C57BL/6J mice [5]; vs saline,no significant reduction
same,fasting blood insulin and glucose concentrations compared to saline,obese C57BL/6J mice [6],reduced
same,solubility of R in water and physiological fluid,[7],less than 0.1 mg/mL
same,mRNA expression of UCP1 and beige marker CD137 and Tmem26,[8],enhanced
B1,"ΔDCN cells R content at 4° C. for 4 hours, against free R and Rnano",[9],2 fold
same,"DiD+ ASC after intravenous injection, DiD-L-Rnano mouse against DiD-Rnano treatment (flow cytometry; depot not given, I-WAT by context)",[10],9.3 fold
same,"DiD+ cell ratio among the ASC population after intravenous injection of DiD-L-Rnano (flow cytometry; depot not given, I-WAT by context)",[10],31.7%
same,"cellular R content of SVCs at 4° C., against free R-treated SVF cells",[10],2.8 fold
same,"cellular R content of SVCs at 37° C., against free R-treated SVF cells",[10],2.5 fold
same,"percentage of DiD+ ASC in G-WAT after intravenous injection, DiD-L-Rnano mouse against DiD-Rnano mouse (flow cytometry)",[10],3.5 fold
same,"percentage of DiD+ ASC in RP-WAT after intravenous injection, DiD-L-Rnano mouse against DiD-Rnano mouse (flow cytometry)",[10],4.8 fold
same,fold DiD positive rate of ΔDCN cells against DiD-labeled Rnano,[11],5 fold

# — patent publication US20200368174A1, “PARTICLES FOR TARGETED DELIVERY OF ACTIVE AGENTS INTO ADIPOSE STROMAL CELLS” (Texas Tech University System, priority 2018, published 2020)
